In one experiment the test system is Gprc6a−/− myotubes. In words: 14C-oleate (fatty acid) oxidation in myotubes. The class given is cell-based, mouse. As for the experimental part: (§1) Glucose and insulin tolerance tests were performed as previously described (Lee et al., 2007, Cell 130:456-469). For in vivo glucose uptake, a bolus of 2-deoxy-d-[^3H]glucose (^3H-2-DG, Perkin Elmer) (10 μCi) was administered before an endurance run. ^3H-2-DG and ^3H-2-DG-6-P content in muscle was determined by liquid scintillation counter and normalized to muscle weight. Glucose uptake and fatty acid oxidation assays in myotubes were performed as previously described (Sebastian et al., 2007, Am. J. Physiol. Endocrinol. Metab. 292:E667-686). GLUT4 translocation was determined by flow cytometry using an antibody against the extracellular domain of the GLUT4 protein (Santa Cruz, Sc-1606). Measurements of oxygen consumption rates (OCR) in isolated myofibers were performed using a XF24 Seahorse Analyzer® (Seahorse Biosciences). To analyze mitochondrial function, myofibers were treated with three compounds in succession (oligomycin 10 μg/ml, FCCP 200 μM, rotenone 0.2 μM) and OCR was recorded following administration of each of them.
(§2) Culture of skeletal muscle myoblasts from 7 day-old mice was performed as described (Gharaibeh et al., 2008, Nature Protocols 3:1501-1509). Myoblasts were differentiated into myotubes for 3-4 days in a medium containing 5% horse serum. Muscle fibers were isolated from flexor digitorum brevis muscle. Muscles were dissected with DMEM 2% collagenase for 2 hours at 37° C., in a 5% CO2 incubator. Muscle fibers were disaggregated from the tissue using a wide bore pipet and plated in matrigel-coated plates at approximately 50% confluence. After overnight incubation, isolated myofibers were used.

The next experiment has as its system WT myotubes. In words: 14C-oleate (fatty acid) oxidation in myotubes. The format is cell-based, mouse. The protocol: as §1, §2
For experiment [1], the system named is glycolytic and oxidative muscles of WT mice. In words: In vivo 3H-2-DG glucose uptake in muscle after exercise. On the set-up: species or system mouse. Particulars: older WT mice receiving Ocn (500 ng/g) before running; greater extent in oxidative than glycolytic muscles. As for the experimental part:
FIG. 31. Osteocalcin treatment increases muscle function in young and old WT mice. (A-B) Performance during endurance exercise of 3 month-old WT, Gprc6af/f and Gprc6aMck−/− female mice treated with Ocn (n=6-10 per group). (C) Performance during endurance exercise of 12 and 15 month-old WT female mice treated with Ocn (n=6-10 per group). (D) Western blot analysis of Akt phosphorylation (Ser473) in muscles of WT mice injected with Ocn (500 ng/g) after a single bout of exercise. (E) Western blot analysis of AMPK phosphorylation ([…]) in muscles of WT mice injected with Ocn (500 ng/g) after a single bout of exercise. […]
as §1, with “Glucose uptake and fatty acid oxidation assays in myotubes were performed as previously described (Sebastian et al., 2007, Am. J. Physiol. Endocrinol. Metab. 292:E667-686).” left out, “Measurements of oxygen consumption rates (OCR) in isolated myofibers were performed using a XF24 Seahorse Analyzer® (Seahorse Biosciences).” left out

The subject of another experiment is wild type mice. In words: Body weight and gonadal fat pad mass during subcutaneous infusion. The class given is in vivo, mouse. As for the experimental part: FIG. 4. Osteocalcin subcutaneous infusion decreases fat mass in wild-type mice. (A) Indicated doses of recombinant osteocalcin or PBS were infused subcutaneously for 28 days in wild-type mice. Body weight was recorded at indicated days. (B) Gonadal fat pad mass was measured after 28 days.
In another in vivo experiment, the effect of uncarboxylated osteocalcin on body weight and fat pad mass was monitored (FIG. 4). Wild type mice were infused subcutaneously for 28 days with PBS or uncarboxylated osteocalcin at 0.3, 1 or 3 ng/hour. […] Gonadal fat pad mass, measured after 28 days, decreased by about %18 with 3 ng/hour uncarboxylated osteocalcin treatment.

For a further experiment, the system named is WT mice. In words: D/LT and EPMT in adult WT mice with ICV infusion. The class given is in vivo, mouse. The protocol:
FIG. 14. Osteocalcin improves cognitive function in adult wild-type (WT) mice. Results from dark and light (DLT) and elevated plus maze tests (EPMT) performed in 3-month old WT mice infused ICV with vehicle (PBS) or recombinant uncarboxylated osteocalcin (Ocn) (3, 10, 30 ng/hour) are shown. (A) DLT measuring the latency to enter, the number of entries, and the time spend in lit compartment. (B) EPMT measuring the number of entries into open arms and the time spend in […].
Each mouse was allowed to explore the apparatus for 5 min. Global activity was assessed by measuring the number of entries […] (David et al, 2009, Neuron 62:479-493). Anxiety was assessed by comparing the time spent in the open arms.
The test was performed in a quiet, darkened room. Mice were individually housed in cages containing a handful of bedding from their home cage and acclimated to the room at least 1 h before the test. Naïve mice were placed individually in the testing chamber in the dark compartment. The test was 5 min in duration, and time spent and number of entries in light compartments were recorded a highly trained observer, blind to the genotype of the mice.
To determine if osteocalcin is sufficient to improve cognitive function in adult mice, WT 2-month old mice were implanted with ICV pumps delivering vehicle (PBS), or 3, 10, or 30 ng/hr recombinant uncarboxylated full-length mouse osteocalcin for a period of one month. After one month of infusion, animals were subjected to behavioral testing. […] This improvement is evidenced by an increase in the exploration of the lit compartment and open arms in the D/LT and EMP tests, respectively (FIG. 14A-B).

For another experiment, the system named is aged WT mice. In words: Novel Object Recognition test in aged WT mice with ICV infusion. The class given is in vivo, mouse. As for the experimental part: FIG. 15. Osteocalcin improves hippocampal function in aged wild-type (WT) mice. Constant and novel object investigation in the Novel Object Recognition test in 17 month old mice treated for 1 month with vehicle or 10 ng/hr recombinant uncarboxylated osteocalcin.
ICV pumps delivering (10 ng/hr) recombinant uncarboxylated full-length mouse osteocalcin were implanted in 16 month old WT mice. After an infusion period of one month, the mice were subjected to a modified version of the Novel Object Recognition test, to assay memory and hippocampal function. Briefly, mice were given five 5 minute exposures, with 3 minute resting intervals between exposures, to a novel arena containing two objects. During exposures 1-4, mice were habituated to these two objects, which elicited equal amounts of exploration. In the fifth exposure, one of the objects was replaced with a novel object.

The mark [2] stands for this setting: 3 or 10 ng/hour ICV for one month.

As for “uncarboxylated osteocalcin: Recombinant uncarboxylated mouse osteocalcin, bacterially produced, purified on glutathione beads and cleaved from the GST subunit by thrombin (YLGASVPSPDPLEPTREQCELNPACDELSDQYGLKTAYKRIYGITI)”, the 14C-oleate oxidation entry with Gprc6a−/− myotubes is “could not increase”; with WT myotubes (WT myotubes), “increase”. Also, the fatty acid oxidation entry with WT myotubes (summary statement, in muscle) is recorded as “favors”. The “glucose uptake in muscle” value in experiment [1] is “increase”. Moreover, the “decrease of gonadal fat pad mass” value with wild type mice (3 ng/hour, after 28 days) was roughly 18%. In the experiment on wild type mice (0.3, 1 or 3 ng/hour subcutaneously for 28 days, highest dose most effective), the body weight entry was “slightly reduced”. Further, in the experiment on wild type mice (subcutaneous infusion 28 days (FIG. 4 title)), the fat mass result is recorded as “decreases”. In addition, in the experiment with wild type mice (the other doses (0.3, 1 ng/hour), 28 days), the “gonadal fat pad mass” value was “did not significantly decrease”. For the same substance, in the experiment on WT mice (setting [2]), the “exploration of the lit compartment (D/LT)” value is “increase”. For the same substance, the “exploration of the open arms (EPMT)” value in the experiment with WT mice (setting [2]) is listed as “increase”. For the same substance, the anxiety-like behavior entry in the experiment on WT mice (3 or 10 ng/hour ICV for one month, WT 2-month old mice) was “decrease”. For the same substance, the cognitive function result with WT mice (adult WT mice, ICV 3, 10, 30 ng/hour (FIG. 14 title)) was “improves”. The “time exploring the novel object” value in the experiment on aged WT mice (10 ng/hr ICV for one month, 16 month old WT mice, versus vehicle alone) is “less time”. In addition, the “discrimination between the novel and constant objects” value in the experiment on aged WT mice (10 ng/hr ICV for one month, aged mice) is recorded as “able to discriminate”. Also, the hippocampal function result in the experiment on aged WT mice (aged WT mice (FIG. 15 title)) is “improves”.
